How the values were obtained:
alcohol preferring rats [1] = assay: Alcohol Preferring Rats, Study A: Chronic Administration (14 days); type: in vivo, rat; details: 20 mg/kg once a day, gavage
Method: (§1) Adult male selectively-bred alcohol preferring rats were used in this study. The selectively bred alcohol preferring rats are widely used to study the suppressant effects of compounds on voluntary alcohol intake (Faren et al. 2000; Rezvani et al, 1990, 1991, 1992a, 1992b, 1999, 2000, 2002; 2003; Murphy et al, 1988; Overstreet et al., 1992, 1999; Li and McBride, 1995).
(§2) The rats were housed individually under a constant room temperature of 22±1° C. and 12:12 light-dark cycle (7:00-19:00, dark). Animals were fed Agway Prolab Rat/Mouse/Hamster 3000 formula and water ad libitum.
(§3) Alcohol intake was determined using a standard two-bottle choice method (Murphy et al. 1988; McBride et al. 1990; Rezvani et al. 1990, 1991, 1993, 1995, 1997, Rezvani et al., 2007a,b; Rezvani and Grady, 1994). Animals were first given free access to water in a graduated Richter tube for 1 day. Next, they were given access to only a solution of 10% (v/v) ethanol for 3 consecutive days. During this period the animals became accustomed to drinking from Richter tubes and to the taste and pharmacological effects of alcohol. Thereafter, the animals were given free access to both water and a solution of 10% alcohol for 4 consecutive weeks and throughout of the study. The animals continued to have free access to food. Water and alcohol intake were recorded at 6 and 24 hour.
After establishment of a reliable baseline for alcohol, and water intake, the animals were randomly assigned to a treatment regimen. The animals were administered once a day, via gavage, either vehicle (0.5% methylcellulose) or compound of formula (I-A) (at 30 mg/kg) or naltrexone (at 20 mg/kg) for 14 consecutive days. A group of 6-7 animals was used for each treatment. Alcohol and water intake was recorded at 6 hrs and 24 hrs after administration.
(§4) The results are presented as a means ±SEM. Alcohol intake (g/kg) was calculated by multiplying the volume of alcohol consumed in ml by 10% and 0.7893 (ethanol density)/body weight in kg. Alcohol preference, expressed as percentage was calculated as (volume of alcohol consumed in ml/total fluid intake in ml)×100 (Rezvani and Grady, 1994; Rezvani et al., 2007a). Statistical differences between drug-treated and control groups was determined by using ANOVA and Tukey Student's t test for multiple comparison.
The results from Study A provide a measure of whether or not the animals develop tolerance to the suppressant effects of the test compound following a chronic treatment. In Tables 5-8 below, the abbreviation “(I-A)” stands for the compound of formula (I-A), the abbreviation “Naltx” stands for naltrexone, and the abbreviation “EtOH” stands for ethanol.

alcohol preferring rats [2] = assay: Alcohol Preferring Rats, Study B: Post-Deprivation Effect; type: in vivo, rat; details: 20 mg/kg, 45 min before re-exposure to alcohol after 72 hours deprivation
Method: as §1, §2, §3
Following Study A, the rats were maintained on alcohol for 15 days without drug. On day 16 post-gavage, rats were put on food and water only for 72 hours. On the next day, 45 min before re-exposure to alcohol, the rats were treated with vehicle (0.5% methylcellulose), naltrexone (at 20 mg/kg) or compound of formula (I-A) (at 30-mg/kg). Alcohol intake was then measured at 1, 3, 6 and 24 hr after exposure.
as §4, with “means.” for “means ±SEM.”
The results from Study B provide a measure of the effectiveness of the test compound to suppress post-deprivation-induced craving for alcohol.

O=C1CC[C@@]2(O)[C@H]3Cc4ccc(O)c5c4[C@@]2(CCN3CC2CC2)[C@H]1O5 [Naltrexone, naltrexone, reference compound]
Alcohol Preference (alcohol preferring rats [1]; Day 1, 6 Hour Intake): 64 % EtOH | Alcohol Preference (alcohol preferring rats [1]; Day 1, 24 Hour Intake): 65 % EtOH | Alcohol Preference (alcohol preferring rats [1]; Day 2, 6 Hour Intake): 67 % EtOH | Alcohol Preference (alcohol preferring rats [1]; Day 2, 24 Hour Intake): 68 % EtOH | Alcohol Preference (alcohol preferring rats [1]; Day 3, 6 Hour Intake): 70 % EtOH | Alcohol Preference (alcohol preferring rats [1]; Day 3, 24 Hour Intake): 68 % EtOH | Alcohol Preference (alcohol preferring rats [1]; Day 4, 6 Hour Intake): 80 % EtOH | Alcohol Preference (alcohol preferring rats [1]; Day 4, 24 Hour Intake): 77 % EtOH | Alcohol Preference (alcohol preferring rats [1]; Day 5, 6 Hour Intake): 81 % EtOH | Alcohol Preference (alcohol preferring rats [1]; Day 5, 24 Hour Intake): 79 % EtOH | Alcohol Preference (alcohol preferring rats [1]; Day 6, 6 Hour Intake): 86 % EtOH | Alcohol Preference (alcohol preferring rats [1]; Day 6, 24 Hour Intake): 72 % EtOH | Alcohol Preference (alcohol preferring rats [1]; Day 7, 6 Hour Intake): 88 % EtOH | Alcohol Preference (alcohol preferring rats [1]; Day 7, 24 Hour Intake): 84 % EtOH | Alcohol Preference (alcohol preferring rats [1]; Day 8, 6 Hour Intake): 88 % EtOH | Alcohol Preference (alcohol preferring rats [1]; Day 8, 24 Hour Intake): 85 % EtOH | Alcohol Preference (alcohol preferring rats [1]; Day 9, 6 Hour Intake): 89 % EtOH | Alcohol Preference (alcohol preferring rats [1]; Day 9, 24 Hour Intake): 89 % EtOH | Alcohol Preference (alcohol preferring rats [1]; Day 10, 6 Hour Intake): 91 % EtOH | Alcohol Preference (alcohol preferring rats [1]; Day 10, 24 Hour Intake): 85 % EtOH | Alcohol Preference (alcohol preferring rats [1]; Day 11, 6 Hour Intake): 99 % EtOH | Alcohol Preference (alcohol preferring rats [1]; Day 11, 24 Hour Intake): 99 % EtOH | Alcohol Preference (alcohol preferring rats [1]; Day 12, 6 Hour Intake): 95 % EtOH | Alcohol Preference (alcohol preferring rats [1]; Day 12, 24 Hour Intake): 97 % EtOH | Alcohol Preference (alcohol preferring rats [1]; Day 13, 6 Hour Intake): 90 % EtOH | Alcohol Preference (alcohol preferring rats [1]; Day 13, 24 Hour Intake): 95 % EtOH | Alcohol Preference (alcohol preferring rats [1]; Day 14, 6 Hour Intake): 92 % EtOH | Alcohol Preference (alcohol preferring rats [1]; Day 14, 24 Hour Intake): 89 % EtOH | % EtOH (alcohol preferring rats [2]; 1 Hour Post Dosing): 95% | Alcohol (alcohol preferring rats [2]; 1 Hour Post Dosing): 0.48 g/kg | % EtOH (alcohol preferring rats [2]; 3 Hours Post Dosing): 94% | Alcohol (alcohol preferring rats [2]; 3 Hours Post Dosing): 1.15 g/kg | % EtOH (alcohol preferring rats [2]; 6 Hours Post Dosing): 87% | Alcohol (alcohol preferring rats [2]; 6 Hours Post Dosing): 2.35 g/kg | % EtOH (alcohol preferring rats [2]; 24 Hours Post Dosing): 87% | Alcohol (alcohol preferring rats [2]; 24 Hours Post Dosing): 6.47 g/kg

Source: US20080200492A1, “METHODS FOR THE TREATMENT OF ALCOHOL ABUSE, ADDICTION AND DEPENDENCY” (priority 2006, published 2008)
